Measurements from patent US12180193B2, “Accelerating fibrosarcoma protein degrading compounds and associated methods of use” (Arvinas Operations, Inc., priority 2020, dated 2024).

Assays:
BRAF G466V = biological target: T1, BRAF G466V (Homo sapiens, UniProt P15056, G466V); test: Cellular assay of target protein degradation, T-Rex 293 cells stably transfected with HA-BRAF G466V (HA immunofluorescence, high content imaging); assay type: cell-based; details: T-Rex 293 HA-BRAF G466V; for DC50: half maximal degradation, read-out: BRaf G466V DC50; for Dmax: maximum degradation observed
T1 construct: expressed in transfected cells
T1 sequence (P15056 whole entry G466V): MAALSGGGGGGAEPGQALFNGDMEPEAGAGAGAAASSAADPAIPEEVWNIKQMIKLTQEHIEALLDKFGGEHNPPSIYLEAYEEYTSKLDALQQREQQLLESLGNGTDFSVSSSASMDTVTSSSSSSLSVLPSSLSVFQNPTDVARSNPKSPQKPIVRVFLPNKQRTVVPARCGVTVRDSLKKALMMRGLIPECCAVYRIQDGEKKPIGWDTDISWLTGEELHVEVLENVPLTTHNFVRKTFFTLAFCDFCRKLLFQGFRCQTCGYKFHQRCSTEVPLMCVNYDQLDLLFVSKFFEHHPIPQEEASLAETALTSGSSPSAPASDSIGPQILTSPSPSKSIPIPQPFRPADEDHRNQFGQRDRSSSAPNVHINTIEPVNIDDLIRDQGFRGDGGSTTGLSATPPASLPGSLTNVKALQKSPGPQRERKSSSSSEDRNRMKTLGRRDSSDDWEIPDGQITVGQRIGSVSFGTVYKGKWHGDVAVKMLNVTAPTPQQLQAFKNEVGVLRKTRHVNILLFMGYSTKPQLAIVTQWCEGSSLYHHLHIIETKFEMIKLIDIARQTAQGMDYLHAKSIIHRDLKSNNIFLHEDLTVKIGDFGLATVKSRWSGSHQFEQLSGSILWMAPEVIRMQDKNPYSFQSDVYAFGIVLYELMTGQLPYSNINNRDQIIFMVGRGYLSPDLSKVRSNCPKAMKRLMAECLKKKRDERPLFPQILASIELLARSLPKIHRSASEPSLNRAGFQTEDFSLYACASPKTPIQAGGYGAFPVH
Method in brief: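 First, stably transfected T-Rex 293 cells were plated with 0.75 ng/mL doxycycline and grown for 24 hours. Next, compound (final 30 nM to 3 pM, 0.1% DMSO) was added for another 24 hours at 37° C. Finally, cells were fixed, stained for HA and imaged.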

BRAF V600E = biological target: T2, BRAF V600E (Homo sapiens, UniProt P15056, V600E); test: Cellular assay of target protein degradation, T-Rex 293 cells stably transfected with HA-BRAF_V600E (HA immunofluorescence, high content imaging); assay type: cell-based; details: T-Rex 293 HA-BRAF V600E; for DC50: half maximal degradation, read-out: BRaf V600E DC50; for Dmax: maximum degradation observed
T2 construct: expressed in transfected cells
T2 sequence (P15056 whole entry V600E): as the sequence (P15056 whole entry G466V) above, with V466G, V600E counted along it
Method in brief: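 Read-out is anti-HA immunofluorescence quantified by high-content imaging, giving half-maximal degradation concentration (DC50) and maximum degradation (Dmax, percent of control). Cells expressed the construct under 1 ng/mL doxycycline and received compound (1 μM to 0.1 nM final, 0.1% DMSO) for 24 h at 37 °C.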

SMILES	DC50 (BRAF G466V) [nM]	Dmax (BRAF G466V) [%]	DC50 (BRAF V600E) [nM]	Dmax (BRAF V600E) [%]
COc1cc(C2CCN(CC3CCN(c4ccc(-c5cnc6[nH]cc(C(=O)c7c(F)ccc(NS(=O)(=O)N8CC[C@@H](F)C8)c7F)c6c5)cn4)CC3)CC2)cc2c1C(=O)N(C1CCC(=O)NC1=O)C2 (stereo partly drawn) [Compound 164, (3R)-N-[3-(5-{6-[4-({4-[2-(2,6-dioxopiperidin-3-yl)-7-methoxy-1-oxo-2,3-dihydro-1H-isoindol-5-yl]piperidin-1-yl}methyl)piperidin-1-yl]pyridin-3-yl}-1H-pyrrolo[2,3-b]pyridine-3-carbonyl)-2,4-difluorophenyl]-3-fluoropyrrolidine-1-sulfonamide]	< 1	> 70	5 to 50	35 to 70
O=C1CCC(N2Cc3cc(C4CCN(CC5CCN(c6c(F)cc(-c7cnc8[nH]cc(C(=O)c9c(F)ccc(NS(=O)(=O)N%10CC[C@@H](F)C%10)c9F)c8c7)cc6F)CC5)CC4)ccc3C2=O)C(=O)N1 (stereo partly drawn) [Compound 94, (3R)-N-[3-(5-{4-[4-({4-[2-(2,6-dioxopiperidin-3-yl)-1-oxo-2,3-dihydro-1H-isoindol-5-yl]piperidin-1-yl}methyl)piperidin-1-yl]-3,5-difluorophenyl}-1H-pyrrolo[2,3-b]pyridine-3-carbonyl)-2,4-difluorophenyl]-3-fluoropyrrolidine-1-sulfonamide]	1 to 10	> 70	5 to 50	35 to 70
O=C1CC[C@@H](N2Cc3cc(N4CC[C@@H](COc5ccc(-c6cnc7[nH]cc(C(=O)c8c(F)ccc(NS(=O)(=O)N9CC[C@@H](F)C9)c8F)c7c6)cc5)C4)ccc3C2=O)C(=O)N1 [Compound 336, (3R)-N-{3-[5-(4-{[(3R)-1-{2-[(3R)-2,6-dioxopiperidin-3-yl]-1-oxo-2,3-dihydro-1H-isoindol-5-yl}pyrrolidin-3-yl]methoxy}phenyl)-1H-pyrrolo[2,3-b]pyridine-3-carbonyl]-2,4-difluorophenyl}-3-fluoropyrrolidine-1-sulfonamide]	> 30	–	> 500	35 to 70
COc1cc(N2CC3(CN(CC4CCN(c5ccc(-c6cnc7[nH]cc(C(=O)c8c(F)ccc(NS(=O)(=O)N9CC[C@@H](F)C9)c8F)c7c6)cc5)CC4)C3)C2)cc(F)c1C(=O)NC1CCC(=O)NC1=O (stereo partly drawn) [Compound 348, 4-(6-{[1-(4-{3-[2,6-difluoro-3-({[(3R)-3-fluoropyrrolidin-1-yl]sulfonyl}amino)benzoyl]-1H-pyrrolo[2,3-b]pyridin-5-yl}phenyl)piperidin-4-yl]methyl}-2,6-diazaspiro[3.3]heptan-2-yl)-N-(2,6-dioxopiperidin-3-yl)-2-fluoro-6-methoxybenzamide]	1 to 10	> 70	5 to 50	35 to 70
O=C1CCC(N2Cc3cc(N4CC(CN5CCC(C6(c7ccc(-c8cnc9[nH]cc(C(=O)c%10c(F)ccc(NS(=O)(=O)N%11CC[C@@H](F)C%11)c%10F)c9c8)cc7)CC6)CC5)C4)ccc3C2=O)C(=O)N1 (stereo partly drawn) [Compound 304, (3R)-N-{3-[5-(4-{1-[1-({1-[2-(2,6-dioxopiperidin-3-yl)-1-oxo-2,3-dihydro-1H-isoindol-5-yl]azetidin-3-yl}methyl)piperidin-4-yl]cyclopropyl}phenyl)-1H-pyrrolo[2,3-b]pyridine-3-carbonyl]-2,4-difluorophenyl}-3-fluoropyrrolidie-1-sulfonamide]	1 to 10	35 to 70	50 to 500	35 to 70
O=C1CC[C@H](N2Cc3cc([C@@H](O)CCN4CCN(c5ccc(-c6cnc7[nH]cc(C(=O)c8c(F)ccc(NS(=O)(=O)N9CC[C@@H](F)C9)c8F)c7c6)cc5)CC4)c(F)cc3C2=O)C(=O)N1 [Compound 300, (3R)-N-{3-[5-(4-{4-[(3S)-3-{2-[(3S)-2,6-dioxopiperidin-3-yl]-6-fluoro-1-oxo-2,3-dihydro-1H-isoindol-5-yl}-3-hydroxypropyl]piperazin-1-yl}phenyl)-1H-pyrrolo[2,3-b]pyridine-3-carbonyl]-2,4-difluorophenyl}-3-fluoropyrrolidine-1-sulfonamide]	< 1	35 to 70	50 to 500	35 to 70
O=C1CC[C@@H](N2Cc3cc(N4CC(CN5CCN(C6(c7ncc(-c8cnc9[nH]cc(C(=O)c%10c(F)ccc(NS(=O)(=O)N%11CC[C@@H](F)C%11)c%10F)c9c8)cn7)CC6)CC5)C4)ccc3C2=O)C(=O)N1 [Compound 286, (3R)-N-(3-{5-[2-(1-{4-[(1-{2-[(3R)-2,6-dioxopiperidin-3-yl]-1-oxo-2,3-dihydro-1H-isoindol-5-yl}azetidin-3-yl)methyl]piperazin-1-yl}cyclopropyl)pyrimidin-5-yl]-1H-pyrrolo[2,3-b]pyridine-3-carbonyl}-2,4-difluorophenyl)-3-fluoropyrrolidine-1-sulfonamide]	1 to 10	35 to 70	50 to 500	35 to 70
O=C1CCC(N2Cc3ccc(C4CCN(CC5CCN(c6ccc(-c7cnc8[nH]cc(C(=O)c9c(F)ccc(NS(=O)(=O)N%10CC[C@@H](F)C%10)c9F)c8c7)cc6)CC5)CC4)cc3C2=O)C(=O)N1 (stereo partly drawn) [Compound 185, (3R)-N-[3-(5-{4-[4-({4-[2-(2,6-dioxopiperidin-3-yl)-3-oxo-2,3-dihydro-1H-isoindol-5-yl]piperidin-1-yl}methyl)piperidin-1-yl]phenyl}-1H-pyrrolo[2,3-b]pyridine-3-carbonyl)-2,4-difluorophenyl]-3-fluoropyrrolidine-1-sulfonamide]	1 to 10	> 70	5 to 50	< 35
O=C1CCC(N2Cc3cc(OC[C@@H]4CCN4c4ccc(-c5cnc6[nH]cc(C(=O)c7c(F)ccc(NS(=O)(=O)N8CC[C@@H](F)C8)c7F)c6c5)cc4)ccc3C2=O)C(=O)N1 (stereo partly drawn) [Compound 17, (3R)-N-[3-(5-{4-[(2S)-2-({[2-(2,6-dioxopiperidin-3-yl)-1-oxo-2,3-dihydro-1H-isoindol-5-yl]oxy}methyl)azetidin-1-yl]phenyl}-1H-pyrrolo[2,3-b]pyridine-3-carbonyl)-2,4-difluorophenyl]-3-fluoropyrrolidine-1-sulfonamide]	> 30	–	> 500	–
O=C1CCC(N2Cc3cc(C4CCN(CCC5CCN(c6ccc(-c7cnc8[nH]cc(C(=O)c9c(F)ccc(NS(=O)(=O)N%10CC[C@@H](F)C%10)c9F)c8c7)cc6)CC5)CC4)ccc3C2=O)C(=O)N1 (stereo partly drawn) [Compound 127, (3R)-N-[3-(5-{4-[4-(2-{4-[2-(2,6-dioxopiperidin-3-yl)-1-oxo-2,3-dihydro-1H-isoindol-5-yl]piperidin-1-yl}ethyl)piperidin-1-yl]phenyl}-1H-pyrrolo[2,3-b]pyridine-3-carbonyl)-2,4-difluorophenyl]-3-fluoropyrrolidine-1-sulfonamide]	1 to 10	> 70	< 5	< 35
O=C1CCC(N2Cc3cc(N4CCC(CN5CCC6(CCN(c7ccc(-c8cnc9[nH]cc(C(=O)c%10c(F)ccc(NS(=O)(=O)N%11CC[C@@H](F)C%11)c%10F)c9c8)cn7)CC6)C5)CC4)ccc3C2=O)C(=O)N1 (stereo partly drawn) [Compound 95, (3R)-N-[3-(5-{6-[2-({1-[2-(2,6-dioxopiperidin-3-yl)-1-oxo-2,3-dihydro-1H-isoindol-5-yl]piperidin-4-yl}methyl)-2,8-diazaspiro[4.5]decan-8-yl]pyridin-3-yl}-1H-pyrrolo[2,3-b]pyridine-3-carbonyl)-2,4-difluorophenyl]-3-fluoropyrrolidine-1-sulfonamide]	< 1	35 to 70	> 500	–
O=C1CCC(N2Cc3cc(N4CCN(C[C@H](O)Cc5ccc(-c6cnc7[nH]cc(C(=O)c8c(F)ccc(NS(=O)(=O)N9CC[C@@H](F)C9)c8F)c7c6)cc5)CC4)ccc3C2=O)C(=O)N1 (stereo partly drawn) [Compound 90, (3R)—N-[3-[5-[4-[(2R)-3-[4-[2-(2,6-dioxo-3-piperidyl)-1-oxo-isoindolin-5-yl]piperazin-1-yl]-2-hydroxy-propyl]phenyl]-1H-pyrrolo[2,3-b]pyridine-3-carbonyl]-2,4-difluoro-phenyl]-3-fluoro-pyrrolidine-1-sulfonamide]	1 to 10	35 to 70	5 to 50	35 to 70
O=C1CCC(N2Cc3cc(N4CC5(CN(c6ccc(-c7cnc8[nH]cc(C(=O)c9c(F)ccc(NS(=O)(=O)N%10CC[C@@H](F)C%10)c9F)c8c7)cc6)C5)C4)ccc3C2=O)C(=O)N1 (stereo partly drawn) [Compound 26, (3R)-N-{3-[5-(4-{6-[2-(2,6-dioxopiperidin-3-yl)-1-oxo-2,3-dihydro-1H-isoindol-5-yl]-2,6-diazaspiro[3.3]heptan-2-yl}phenyl)-1H-pyrrolo[2,3-b]pyridine-3-carbonyl]-2,4-difluorophenyl}-3-fluoropyrrolidine-1-sulfonamide]	< 1	35 to 70	> 500	> 70
O=C1CCC(c2ccc(C3CCN(CC4CCN(c5ccc(-c6cnc7[nH]cc(C(=O)c8c(F)ccc(NS(=O)(=O)N9CC[C@@H](F)C9)c8F)c7c6)cc5)CC4)CC3)cc2F)C(=O)N1 (stereo partly drawn) [Compound 168, (3R)-N-[3-(5-{4-[4-({4-[4-(2,6-dioxopiperidin-3-yl)-3-fluorophenyl]piperidin-1-yl}methyl)piperidin-1-yl]phenyl}-1H-pyrrolo[2,3-b]pyridine-3-carbonyl)-2,4-difluorophenyl]-3-fluoropyrrolidine-1-sulfonamide]	1 to 10	> 70	5 to 50	< 35
